Reference: patent US20160081968A1, “COMPOSITION FOR USE IN REDUCING SCAB FORMATION AND PROMOTING HEALING” (BIOGLAN AB, priority 2013, published 2016)

Tested on: bacteria (e.g. S. aureus, B. subtilis, Pseud. aeuruginosa)
Assay: Antimicrobial activity of glyceryl monolaurate
Type: cell-based
Excerpt: The compositions have an inbuilt antimicrobial system which gives less need for preservatives. The antimicrobial activity of the composition is partly due to the presence of hydrogen peroxide and partly due to the presence of glyceryl monolaurate. […] In combination with hydrogen peroxide, a synergistic effect is achieved and antimicrobial activity according to A criteria is obtained against also yeast (e.g. Candida albicans) and molds (Aspergillus niger). This was shown by performing a preservative effectiveness test according to the PhEur method. Acceptance criteria A is the most strict criteria according to PhEur. Criteria B is less strict.

SMILES: CCCCCCCCCCCC(=O)OCC(O)CO (stereo not shown) [Glyceryl monolaurate]
- antimicrobial activity against bacteria: antimicrobially active against bacteria
